Measurements from patent US4613695A, “N-nitroso compounds and compositions containing such compounds” (Aktiebolaget Leo, priority 1982, dated 1986).
Where two headings read alike, the source gives them in different places.

Columns and labels:
Lymphatic leukemia L1210 = Lymphatic leukemia L1210 survival test (survival time increase, long term survival, cure potential); format: in vivo, Female BDF1 mice; conditions: for minimal effective dose: Mus musculus, L1210, po; for T.I.s (long term survival; max.effect.dose/min.effect.dose): long term survival T·100/To >20%; for T.I.s = max.effect.dose/min.effect.dose: survival time increase, t·100/c ≥125%; for Dose or dose range for cure: ≥90% long term survivors on day 60; for median survival time percent of control: dose of 125 mg/kg, p.o., called significant activity
Experimental: The experimental design and interpretation of the results are in accordance with the standards set by the CCNSC (see reference (16)) and by the DR&D (see reference (17)).
Experimental animals: Female BDF1 mice
Tumour implants: 10^5 tumour cells implanted intraperitoneally (i. p.)
Therapy: The compounds were administered p. o. once on the day following the implantation.
Termination: The animals were killed on the 60th day after the implantation. Living animals on the 60th day are termed long term survivors.
(a) Evaluation of therapeutic dose range for survival time increase: Survival times at various dose levels are determined, and the survival time of the test animals (t) is expressed as the percentage of that of the control animals (c):
The maximum effective dose and the minimum effective dose required to achieve t·100/c≥125% are determined, and a therapeutic index as defined below is calculated:
T. I.s =max.effect.dose/min.effect.dose.
(b) Evaluation of therapeutic dose range for long term survival: Long time survival is determined at various dose levels and is expressed as surviving test animals on day 60 (T) as the percentage of that of the total number of test animals (To):
The maximum effective dose and the minimum effective dose to achieve long term survival T·100/To >20% are determined and a therapeutic index, T. I.1 s is calculated:
T. I.1s =max.effect.dose/min.effect.dose.
(c) Evaluation of cure potential: The normal survival time for test animals receiving no therapeutic treatment is 9-11 days. Surviving test animals on the 60th day after implantation showing no sign of tumour presence are regarded as cured animals. Long term survival is determined as under (b) above, and the effective dose or dose range to achieve a long term survival T·100/To ≥90% is determined as an evaluation of the cure potential.

[1] = test system: Walker carcinosarcoma 256; experiment: Walker carcinosarcoma 256 tumour growth inhibition (single p.o. dose); format: in vivo, Female Sprague Dawley rats; conditions: for ED50: Rattus norvegicus; for activity in the foregoing test (Walker carcinosarcoma 256): dose of 8 mg/kg, preliminary experiments
From the text: (§1) A therapeutic index is an indication of the therapeutic usefulness of a compound, and such an index may be defined in various ways. One type of therapeutic index commonly used is the ratio LD50/ED50, wherein LD50 is the dose that causes a 50 percent lethality, and ED50 is the dose that causes a 50 percent reduction of tumour size. Another type of therapeutic index, useful in evaluation of increasing survival time, is the ratio between maximum and minimum effective dose. Both these types of therapeutic indexes are used and given in the experimental results below.
(§2) The manner of administration of the compounds is by the oral (p. o.) route in each case.
(§3) Experimental animals: Female Sprague Dawley rats
(§4) Tumour implants: Tumour pieces with 2-3 mm diameter, implanted subcutaneously
(§5) Therapy: The compound is administered p. o. once on the day after the implantation
Termination: The animals are killed on the 9th day after implantation
(§6) Evaluation: Weight of tumour is determined in test animals and compared with those of control animals. For each compound the LD50 and ED50 dose (as defined above) are determined. The therapeutic index, T. I., (LD50/ED50) is calculated.

in vivo = conditions: rat, po
From the text: as §1, §2, §3, §4, §5, §6

[2] = 1440 h, >20% long term survivors on day 60, p.o. once, read-out: Minimum effective dose (long term survival)
[3] = median survival time percent of control ≥ 125%, p.o. once, read-out: Minimum effective dose (survival time increase)
[4] = median survival time percent of control ≥ 125%, p.o. once
[5] = po, dose that causes a 50 percent reduction of tumour size, p.o. once, read-out: ED50
[6] = therapeutic index LD50/ED50, p.o.
[7] = >20% long term survivors on day 60, p.o. once

Structure (SMILES)	minimal effective dose (Lymphatic leukemia L1210; [2])	minimal effective dose (Lymphatic leukemia L1210; [3])	T.I.s (long term survival; max.effect.dose/min.effect.dose) (Lymphatic leukemia L1210)	Maximum effective dose (survival time increase) (Lymphatic leukemia L1210; [4])	T.I.s = max.effect.dose/min.effect.dose (Lymphatic leukemia L1210)	Dose or dose range for cure (Lymphatic leukemia L1210; p.o. once)	other results
CON(C)S(=O)(=O)CCNC(=O)N(CCCl)N=O [1:20, 1-(2-chloroethyl)-3-(2-/N-methoxy-N-methylaminosulfonyl/ethyl)-1-nitrosourea]	63 mg/kg	16 mg/kg	2	125 mg/kg	8	63 to 125 mg/kg	–
O=NN(CCCl)C(=O)NCCS(=O)(=O)NC1CCCCC1 [1:11, 1-(2-chloroethyl)-3-(2-/cyclohexylaminosulfonyl/ethyl)-1-nitrosourea]	63 mg/kg	31 mg/kg	2	250 mg/kg	8	125 mg/kg	–
O=NN(CCCl)C(=O)NCCS(=O)(=O)NCc1ccccc1 [1:7, 3-(2-/benzylaminosulfonyl/ethyl)-1-(2-chloroethyl)-1-nitrosourea]	125 mg/kg	–	2	–	–	–	ED50 [1, 5]: 2 mg/kg; T.I. LD50/ED50 [1, 6]: 125; LD50 (in vivo): 250 mg/kg
O=NN(CCCl)C(=O)NCCS(=O)(=O)N1CCCCC1 [1:4, 1-(2-chloroethyl)-1-nitroso-3-(2-/1-piperidinosulfonyl/ethyl)-urea]	31 mg/kg	8 mg/kg	4	125 mg/kg	16	125 mg/kg	ED50 [1, 5]: 1 mg/kg; T.I. LD50/ED50 [1, 6]: 125; LD50 (in vivo): 125 mg/kg
CCN(C)S(=O)(=O)CCNC(=O)N(CCCl)N=O [1:52, 1-(2-chloroethyl)-3-(2-/N-ethyl-N-methylaminosulfonyl/ethyl)-1-nitrosourea]	31 mg/kg	–	2	–	–	–	activity in the foregoing test (Walker carcinosarcoma 256) ([1]; p.o.): significant activity
CN(C)S(=O)(=O)CCCCCNC(=O)N(CCCl)N=O [1:19, 1-(2-chloroethyl)-3-(5-/dimethylaminosulfonyl/pentyl)-1-nitrosourea]	63 mg/kg	–	2	–	–	125 mg/kg	ED50 [1, 5]: 1 mg/kg; T.I. LD50/ED50 [1, 6]: 250; LD50 (in vivo): 250 mg/kg
COCCNS(=O)(=O)CCNC(=O)N(CCCl)N=O [1:8, 1-(2-chloroethyl)-3-(2-/2-methoxyethylaminosulfonyl/ethyl)-1-nitrosourea]	31 mg/kg	–	2	–	–	31 to 63 mg/kg	–
O=NN(CCCl)C(=O)NCCS(=O)(=O)N(CCO)CCO [1:12, 3-(2-/bis(2-hydroxyethyl)aminosulfonyl/ethyl)-1-(2-chloroethyl)-1-nitrosourea]	–	–	–	–	–	125 mg/kg	–
CN(C)S(=O)(=O)CCCCNC(=O)N(CCCl)N=O [1:24, 1-(2-chloroethyl)-3-(4-/dimethylaminosulfonyl/butyl)-1-nitrosourea]	63 mg/kg	31 mg/kg	4	250 mg/kg	8	125 mg/kg	ED50 [1, 5]: 2 mg/kg; T.I. LD50/ED50 ([1]; rat, in vivo, po): 125; LD50 (in vivo): 250 mg/kg
O=NN(CCCl)C(=O)NC1CCCCC1 [CCNU, 1-(2-chloroethyl)-3-cyclohexyl-1-nitrosourea, reference compound]	–	–	–	–	–	–	ED50 [1, 5]: 1 mg/kg; T.I. LD50/ED50 [1, 6]: 90; LD50 (in vivo): 90 mg/kg
CCCCNS(=O)(=O)CCNC(=O)N(CCCl)N=O [1:9, 3-(2-/butylaminosulfonyl/ethyl)-1-(2-chloroethyl)-1-nitrosourea]	63 mg/kg	16 mg/kg	2	125 mg/kg	8	63 mg/kg	–
CN(Cc1ccccc1)S(=O)(=O)CCNC(=O)N(CCCl)N=O [1:17, 3-(2-/N-benzyl-N-methylaminosulfonyl/ethyl)-1-(2-chloroethyl)-1-nitrosourea]	125 mg/kg	63 mg/kg	2	500 mg/kg	8	–	–
O=P1(N(CCCl)CCCl)NCCCO1 (stereo not shown) [Cyclophosphamide, reference compound]	–	–	–	–	–	–	ED50 ([1]; po): 6 mg/kg; T.I. LD50/ED50 [1, 6]: 30; LD50 (in vivo): 180 mg/kg
CC(C)(CO)NS(=O)(=O)CCNC(=O)N(CCCl)N=O [1:16, 1-(2-chloroethyl)-3-(2-/1,1-dimethyl-2-hydroxyethylaminosulfonyl/ethyl)-1-nitrosourea]	–	–	–	–	–	250 mg/kg	–
CN(C)S(=O)(=O)CCCNC(=O)N(CCCl)N=O [1:21, 1-(2-chloroethyl)-3-(3-/dimethylaminosulfonyl/propyl)-1-nitrosourea]	31 mg/kg	8 mg/kg	2	63 mg/kg	8	31 to 63 mg/kg	–
CCN(CCS(=O)(=O)N(C)C)C(=O)N(CCCl)N=O [1:54, 1-(2-chloroethyl)-3-(2-/dimethylaminosulfonyl/ethyl)-3-ethyl-1-nitrosourea]	–	–	–	–	–	–	median survival time percent of control (Lymphatic leukemia L1210): ≥ 125%; activity in the foregoing test (Walker carcinosarcoma 256) ([1]; p.o.): significant activity
COCCN(CCS(=O)(=O)N(C)C)C(=O)N(CCCl)N=O [1:48, 1-(2-chloroethyl)-3-(2-methoxyethyl)-3-/2-(dimethylaminosulfonyl)ethyl/-1-nitrosourea]	–	–	–	–	–	–	activity in the foregoing test (Walker carcinosarcoma 256) ([1]; p.o.): significant activity
CN(C)S(=O)(=O)CCNS(=O)(=O)CCNC(=O)N(CCCl)N=O [1:23, 1-(2-chloroethyl)-3-(2-/2-(dimethylaminosulfonyl)ethylaminosulfonyl/ethyl)-1-nitrosourea]	63 mg/kg	–	2	–	–	125 mg/kg	–
CCCN(CC)S(=O)(=O)CCNC(=O)N(CCCl)N=O [1:53, 1-(2-chloroethyl)-3-(2-/N-ethyl-N-propylaminosulfonyl/ethyl)-1-nitrosourea]	125 mg/kg	31 mg/kg	2	500 mg/kg	16	125 to 150 mg/kg	ED50 [1, 5]: 1.7 mg/kg
CC1CCC(NC(=O)N(CCCl)N=O)CC1 (stereo not shown) [Methyl-CCNU, 1-(2-chloroethyl)-3-(4-methyl-cyclohexyl)-1-nitrosourea, reference compound]	–	8 mg/kg	none	31 mg/kg	4	–	Maximum effective dose (long term survival) (Lymphatic leukemia L1210; [7]): none; Minimum effective dose (long term survival) (Lymphatic leukemia L1210; [7]): none
CCCCC(C)NS(=O)(=O)CCNC(=O)N(CCCl)N=O (stereo not shown) [1:13, 1-(2-chloroethyl)-3-(2-/1-methylpentylaminosulfonyl/ethyl)-1nitrosourea]	–	–	–	–	–	–	median survival time percent of control (Lymphatic leukemia L1210): ≥ 125%
CC(C)(C)NS(=O)(=O)CCNC(=O)N(CCCl)N=O [1:10, 3-(2-/t-butylaminosulfonyl/ethyl)-1-(2-chloroethyl)-1-nitrosourea]	–	–	–	–	–	–	median survival time percent of control (Lymphatic leukemia L1210): ≥ 125%
CN(c1ccccc1)S(=O)(=O)CCNC(=O)N(CCCl)N=O [1:18, 1-(2-chloroethyl)-3-(2-/N-methyl-N-phenylaminosulfonyl/ethyl)-1-nitrosourea]	–	–	–	–	–	–	median survival time percent of control (Lymphatic leukemia L1210): ≥ 125%
